What was measured:
Format in all cases: in vivo
[1] = system: redroot pigweed (Amaranthus retroflexus); test: Test C; parameters: key: 0 was no effect; 100 was complete control; conditions: PREEMERGENCE
[2] = system: common ragweed (Ambrosia elatior); test: Test C; conditions: PREEMERGENCE
[3] = system: ladysthumb smartweed (Polygonum persicaria); test: Test C; parameters: key: 0 was no effect; 100 was complete control; conditions: PREEMERGENCE
[4] = system: barnyardgrass (Echinochloa crus-galli); test: Test C; conditions: PREEMERGENCE
[5] = system: fall panicum (Panicum dichotomiflorum); test: Test C; parameters: key: 0 was no effect; 100 was complete control; conditions: PREEMERGENCE
[6] = system: common groundsel (Senecio vulgaris); test: Test E pre-/postemergence/post directed; parameters: key: 0 is no effect; 100 is complete control; conditions: PREEMERGENCE
Excerpt: (§1) Seeds, tubers, or plant parts of alexandergrass (Brachiaria plantaginea), annual bluegrass (Poa annua), arrowleaf sida (Sida rhombifolia), barnyardgrass (Echinochloa crus-galli), bermudagrass (Cynodon dactylon), citrus (Citrus sinensis), common chickweed (Stellaria media), common purslane (Portulaca oleracea), common ragweed (Ambrosia elatior), common groundsel (Senecio vulgaris), dallisgrass (Paspalum dilatatum), goosegrass (Eleusine indica), green foxtail (Setaria viridis), guineagrass (Panicum maximum), itchgrass (Rottboellia exaltata), johnson grass (Sorghum halepense), kochia (Kochia scoparia), large crabgrass (Digitaria sanguinalis), leafy spurge (Euphorbia esula), pitted morningglory (Ipomoea lacunosa), purple nutsedge (Cyperus rotundus), quackgrass (Agropyron repens), Russian thistle (Salsola kali), sandbur (Cenchrus echinatus), sourgrass (Trichachne insularis), Spanishneedles (Bidens bipinnata), sugarcane (Saccharum officinarum), surinam grass (Brachiaria decumbens) and tall mallow (Malva sylvestris) were planted into greenhouse pots of flats containing greenhouse planting medium. Plant species were grown grown in separate pots or individual compartments. Preemergence applications were made within one day of planting the seed or plant part. Postemergence applications were applied when the plants were in the two to four leaf stage (three to twenty cm).
(§2) Test chemicals were formulated in a non-phytotoxic solvent mixture which included a surfactant and applied preemergence to the soil surface, postemergence to the plants or as a post directed spray to plants and soil at the base of the target species. Untreated control plants and treated plants were placed in the greenhouse and visually evaluated for injury 13 to 21 days after herbicide application. Plant response ratings, summarized in Table E, are based on a 0 to 100 scale where 0 is no injury and 100 is complete control. A dash (−) response means no test result.

[7] = system: large crabgrass (Digitaria sanguinalis); test: Test E pre-/postemergence/post directed; parameters: key: 0 is no effect; 100 is complete control; conditions: PREEMERGENCE
Excerpt: as §1, §2

[8] = system: common purslane (Portulaca oleracea); test: Test E pre-/postemergence/post directed; parameters: key: 0 is no effect; 100 is complete control
Excerpt: as §1, §2

[9] = system: common ragweed (Ambrosia elatior); test: Test E pre-/postemergence/post directed; parameters: key: 0 is no effect; 100 is complete control; conditions: PREEMERGENCE
Excerpt: as §1, §2

[10] = system: guineagrass (Panicum maximum); test: Test E pre-/postemergence/post directed; parameters: key: 0 is no effect; 100 is complete control
Excerpt: as §1, §2

[11] = system: sourgrass (Trichachne insularis); test: Test E pre-/postemergence/post directed; parameters: key: 0 is no effect; 100 is complete control
Excerpt: as §1, §2

[12] = system: dallisgrass (Paspalum dilatatum); test: Test E pre-/postemergence/post directed; parameters: key: 0 is no effect; 100 is complete control
Excerpt: as §1, §2

[13] = system: surinam grass (Brachiaria decumbens); test: Test E pre-/postemergence/post directed; parameters: key: 0 is no effect; 100 is complete control; conditions: PREEMERGENCE
Excerpt: as §1, §2

[14] = system: tall mallow (Malva sylvestris); test: Test E pre-/postemergence/post directed; parameters: key: 0 is no effect; 100 is complete control; conditions: PREEMERGENCE
Excerpt: as §1, §2

[15] = system: goosegrass (Eleusine indica); test: Test E pre-/postemergence/post directed; parameters: key: 0 is no effect; 100 is complete control
Excerpt: as §1, §2

[16] = system: velvetleaf (Abutilon theophrasti); test: Test C; conditions: PREEMERGENCE
[17] = system: johnsongrass (Sorghum halepense); test: Test C; parameters: key: 0 was no effect; 100 was complete control; conditions: PREEMERGENCE
[18] = system: bermudagrass (Cynodon dactylon); test: Test E pre-/postemergence/post directed; parameters: key: 0 is no effect; 100 is complete control; conditions: PREEMERGENCE, Rate 250 g/ha
Excerpt: as §1, §2

Cc1cnc(-c2ccc(C(F)(F)F)cc2)nc1Cc1cccc(OC(F)(F)F)c1 [Compound 15]
10: Plant response rating, Common ragweed ([2]; Rate 35 g/ha) | Plant response rating, Barnyardgrass ([4]; Rate 35 g/ha)
100: Plant response rating, Redroot pigweed ([1]; Rate 140 g/ha) | Plant response rating, Fall panicum ([5]; Rate 140 g/ha) | Plant response rating, Com. groundsel ([6]; Rate 32 g/ha) | Plant response rating, Com. groundsel ([6]; Rate 125 g/ha) | Plant response rating, Com. groundsel ([6]; Rate 250 g/ha) | Plant response rating, Large crabgrass ([7]; Rate 64 g/ha) | Plant response rating, Large crabgrass ([7]; Rate 125 g/ha) | Plant response rating, Large crabgrass ([7]; Rate 250 g/ha) | Plant response rating, Com. purslane ([8]; PREEMERGENCE, Rate 32 g/ha) | Plant response rating, Com. purslane ([8]; PREEMERGENCE, Rate 64 g/ha) | Plant response rating, Com. purslane ([8]; PREEMERGENCE, Rate 125 g/ha) | Plant response rating, Com. purslane ([8]; PREEMERGENCE, Rate 250 g/ha) | Plant response rating, Com. ragweed ([9]; Rate 32 g/ha) | Plant response rating, Com. ragweed ([9]; Rate 64 g/ha) | Plant response rating, Com. ragweed ([9]; Rate 250 g/ha) | Plant response rating, Guineagrass ([10]; PREEMERGENCE, Rate 64 g/ha) | Plant response rating, Guineagrass ([10]; PREEMERGENCE, Rate 125 g/ha) | Plant response rating, Guineagrass ([10]; PREEMERGENCE, Rate 250 g/ha) | Plant response rating, Sourgrass ([11]; PREEMERGENCE, Rate 32 g/ha) | Plant response rating, Sourgrass ([11]; PREEMERGENCE, Rate 64 g/ha) | Plant response rating, Sourgrass ([11]; PREEMERGENCE, Rate 125 g/ha) | Plant response rating, Sourgrass ([11]; PREEMERGENCE, Rate 250 g/ha) | Plant response rating, Dallisgrass ([12]; PREEMERGENCE, Rate 64 g/ha) | Plant response rating, Dallisgrass ([12]; PREEMERGENCE, Rate 125 g/ha) | Plant response rating, Dallisgrass ([12]; PREEMERGENCE, Rate 250 g/ha) | Plant response rating, Surinam grass ([13]; Rate 125 g/ha) | Plant response rating, Surinam grass ([13]; Rate 250 g/ha) | Plant response rating, Tall Mallow ([14]; Rate 64 g/ha) | Plant response rating, Tall Mallow ([14]; Rate 125 g/ha) | Plant response rating, Goosegrass ([15]; PREEMERGENCE, Rate 250 g/ha) | Plant response rating, Johnsongrass ([17]; Rate 140 g/ha)
85: Plant response rating, Redroot pigweed ([1]; Rate 70 g/ha) | Plant response rating, Barnyardgrass ([4]; Rate 140 g/ha) | Plant response rating, Johnsongrass ([17]; Rate 70 g/ha)
95: Plant response rating, Dallisgrass ([12]; PREEMERGENCE, Rate 32 g/ha)
50: Plant response rating, Dallisgrass ([12]; POSTEMERGENCE, Rate 250 g/ha)
25: Plant response rating, Sourgrass ([11]; POSTEMERGENCE, Rate 250 g/ha)
70: Plant response rating, Velvetleaf ([16]; Rate 140 g/ha)
40: Plant response rating, Fall panicum ([5]; Rate 35 g/ha) | Plant response rating, Guineagrass ([10]; POSTEMERGENCE, Rate 250 g/ha)
30: Plant response rating, Goosegrass ([15]; POSTEMERGENCE, Rate 250 g/ha)
60: Plant response rating, Redroot pigweed ([1]; Rate 35 g/ha)
80: Plant response rating, Fall panicum ([5]; Rate 70 g/ha) | Plant response rating, Com. purslane ([8]; POSTEMERGENCE, Rate 250 g/ha)
20: Plant response rating, Common ragweed ([2]; Rate 70 g/ha) | Plant response rating, Ladysthumb ([3]; Rate 70 g/ha) | Plant response rating, Guineagrass ([10]; POSTEMERGENCE, Rate 125 g/ha) | Plant response rating, Sourgrass ([11]; POSTEMERGENCE, Rate 125 g/ha) | Plant response rating, Goosegrass ([15]; POSTEMERGENCE, Rate 125 g/ha) | Plant response rating, Velvetleaf ([16]; Rate 70 g/ha)
5: Plant response rating, Dallisgrass ([12]; POSTEMERGENCE, Rate 125 g/ha) | Plant response rating, Velvetleaf ([16]; Rate 35 g/ha)
35: Plant response rating, Barnyardgrass ([4]; Rate 70 g/ha) | Plant response rating, Johnsongrass ([17]; Rate 35 g/ha)
0: Plant response rating, Ladysthumb ([3]; Rate 35 g/ha)
90: Plant response rating, Ladysthumb ([3]; Rate 140 g/ha) | Plant response rating, Guineagrass ([10]; PREEMERGENCE, Rate 32 g/ha)
98: Plant response rating, Tall Mallow ([14]; Rate 32 g/ha) | Plant response rating, Tall Mallow ([14]; Rate 250 g/ha) | Plant response rating, Goosegrass ([15]; PREEMERGENCE, Rate 32 g/ha) | Plant response rating, Goosegrass ([15]; PREEMERGENCE, Rate 64 g/ha) | Plant response rating, Goosegrass ([15]; PREEMERGENCE, Rate 125 g/ha)
75: Plant response rating, Common ragweed ([2]; Rate 140 g/ha) | Plant response rating, Com. purslane ([8]; POSTEMERGENCE, Rate 125 g/ha)

Cc1cnc(-n2cnc(C(F)(F)F)n2)nc1C(=O)c1cccc(C(F)(F)F)c1 [Compound 67]
100: Plant response rating, Com. groundsel ([6]; Rate 250 g/ha) | Plant response rating, Large crabgrass ([7]; Rate 250 g/ha) | Plant response rating, Com. purslane ([8]; PREEMERGENCE, Rate 64 g/ha) | Plant response rating, Com. purslane ([8]; PREEMERGENCE, Rate 125 g/ha) | Plant response rating, Com. purslane ([8]; PREEMERGENCE, Rate 250 g/ha) | Plant response rating, Com. ragweed ([9]; Rate 125 g/ha) | Plant response rating, Com. ragweed ([9]; Rate 250 g/ha) | Plant response rating, Guineagrass ([10]; PREEMERGENCE, Rate 64 g/ha) | Plant response rating, Guineagrass ([10]; PREEMERGENCE, Rate 125 g/ha) | Plant response rating, Guineagrass ([10]; PREEMERGENCE, Rate 250 g/ha) | Plant response rating, Sourgrass ([11]; PREEMERGENCE, Rate 64 g/ha) | Plant response rating, Sourgrass ([11]; PREEMERGENCE, Rate 125 g/ha) | Plant response rating, Sourgrass ([11]; PREEMERGENCE, Rate 250 g/ha) | Plant response rating, Dallisgrass ([12]; PREEMERGENCE, Rate 250 g/ha) | Plant response rating, Bermudagrass [18] | Plant response rating, Surinam grass ([13]; Rate 250 g/ha) | Plant response rating, Goosegrass ([15]; PREEMERGENCE, Rate 125 g/ha) | Plant response rating, Goosegrass ([15]; PREEMERGENCE, Rate 250 g/ha)
90: Plant response rating, Tall Mallow ([14]; Rate 64 g/ha) | Plant response rating, Tall Mallow ([14]; Rate 125 g/ha) | Plant response rating, Goosegrass ([15]; PREEMERGENCE, Rate 64 g/ha)
70: Plant response rating, Dallisgrass ([12]; PREEMERGENCE, Rate 64 g/ha)
80: Plant response rating, Com. purslane ([8]; PREEMERGENCE, Rate 32 g/ha) | Plant response rating, Guineagrass ([10]; PREEMERGENCE, Rate 32 g/ha) | Plant response rating, Dallisgrass ([12]; PREEMERGENCE, Rate 125 g/ha) | Plant response rating, Tall Mallow ([14]; Rate 32 g/ha) | Plant response rating, Goosegrass ([15]; PREEMERGENCE, Rate 32 g/ha)
98: Plant response rating, Sourgrass ([11]; PREEMERGENCE, Rate 32 g/ha) | Plant response rating, Tall Mallow ([14]; Rate 250 g/ha)
40: Plant response rating, Dallisgrass ([12]; PREEMERGENCE, Rate 32 g/ha)
